Several values for one entry are separate records, joined by “and”; a condition that tells them apart may be missing. Identical values can stand only once. Like-named read-outs stand apart in the source and are kept apart here.
Assays:
Assay type in all cases: cell-based
MIA PaCa-2 = assay: MTT cell viability assay, MIA PaCa-2
Method: (§1) All cell lines were cultured at 37 °C with 5% CO2 in a humidified incubator. HeLa cells were grown in MEM (Gibco) supplemented with 10% fetal bovine serum (FBS, Hyclone) and 1% penicillin/streptomycin (Gibco). MIA PaCa-2, MDA-MB-231, A549, MCF-7, A375 and BEAS-2B cells were grown in DMEM (Gibco) supplemented with 10% FBS and 1% penicillin/streptomycin. CT26, and HCT116 cells were grown in RPMI-1640 supplemented with 10% FBS and 1% penicillin/streptomycin. All cell lines were purchased from the National Collection of Authenticated Cell Cultures (China).
(§2) The antiproliferative activities of the prepared compounds against tested cell lines were evaluated using a standard (MTT)-based colorimetric assay. Cells were plated at a density of 3000 cells/well in 96-well plates and allowed to adhere overnight. Then cells were treated with varying concentrations of synthesized compounds for 72 h. At the end of treatment, 20 μL of thiazolyl blue tetrazolium bromide (MTT) solution (5 mg/mL) was added to each well. Cells were incubated for an additional 4 h at 37 °C and then the medium was removed and replaced with 200 μL of DMSO. The absorbance (OD490) was read on a microplate reader (SpectraMax i3x, Molecular Devices, US). In all experiments, three replicate wells were used for each drug concentration. Each assay was performed at least three times. The IC50 values were calculated by GraphPad Prism 9, which were the mean values derived from three independent experiments.

A375 = assay: MTT cell viability assay, A375
Method: as §1, §2

CT26 = assay: MTT cell viability assay, CT26
Method: as §1, §2

[1] = MTT cytotoxicity towards normal cells, BEAS-2B; details: human; for IC50 at 72 h: BEAS-2B lung epithelial cells (normal cells), source data sheet, single values of three experiments; for CC50 at 72 h: BEAS-2B lung epithelial cells, MTT, cytotoxicity towards normal cells, mean of at least three independent experiments
Method: as §1, §2

A549 = assay: MTT cell viability assay, A549
Method: as §1, §2

MDA-MB-231 = assay: MTT cell viability assay, MDA-MB-231
Method: as §1, §2

MCF-7 = assay: MTT cell viability assay, MCF-7
Method: as §1, §2

HCT 116 = assay: MTT cell viability assay, HCT 116
Method: as §1, §2

Hela = assay: MTT cell viability assay, Hela
Method: as §1, §2

[2] = Homo sapiens, MIA PaCa-2, 72 h, MTT, 72 h, mean of at least three independent experiments, read-out: IC50 MIA PaCa-2
[3] = Homo sapiens, MIA PaCa-2, source data sheet, single values of three experiments, read-out: MTT IC50 MIA PaCa-2
[4] = source data sheet, single values of three experiments, read-out: MTT IC50 MIA PaCa-2
[5] = Homo sapiens, A-375, 72 h, MTT, 72 h, mean of at least three independent experiments, read-out: IC50 A375
[6] = Homo sapiens, A-375, source data sheet, single values of three experiments, read-out: MTT IC50 A375
[7] = source data sheet, single values of three experiments, read-out: MTT IC50 A375
[8] = Mus musculus, CT26, 72 h, MTT, 72 h, mean of at least three independent experiments, read-out: IC50 CT26
[9] = Mus musculus, CT26, source data sheet, single values of three experiments, read-out: MTT IC50 CT-26
[10] = source data sheet, single values of three experiments, read-out: MTT IC50 CT-26
[11] = Homo sapiens, A549, 72 h, MTT, 72 h, mean of at least three independent experiments, read-out: IC50 A549
[12] = Homo sapiens, A549, source data sheet, single values of three experiments, read-out: MTT IC50 A549
[13] = source data sheet, single values of three experiments, read-out: MTT IC50 A549
[14] = Homo sapiens, MDA-MB-231, 72 h, MTT, 72 h, mean of at least three independent experiments, read-out: IC50 MDA-MB-231
[15] = Homo sapiens, MDA-MB-231, source data sheet, single values of three experiments, read-out: MTT IC50 MDA-MB-231
[16] = source data sheet, single values of three experiments, read-out: MTT IC50 MDA-MB-231
[17] = Homo sapiens, MCF7, 72 h, MTT, 72 h, mean of at least three independent experiments, read-out: IC50 MCF-7
[18] = Homo sapiens, MCF7, source data sheet, single values of three experiments, read-out: MTT IC50 MCF-7
[19] = source data sheet, single values of three experiments, read-out: MTT IC50 MCF-7
[20] = Homo sapiens, HCT-116, 72 h, MTT, 72 h, mean of at least three independent experiments, read-out: IC50 HCT 116
[21] = Homo sapiens, HCT-116, source data sheet, single values of three experiments, read-out: MTT IC50 HCT-116
[22] = source data sheet, single values of three experiments, read-out: MTT IC50 HCT-116
[23] = Homo sapiens, HeLa, 72 h, MTT, 72 h, mean of at least three independent experiments, read-out: IC50 Hela
[24] = Homo sapiens, HeLa, source data sheet, single values of three experiments, read-out: MTT IC50 Hela
[25] = source data sheet, single values of three experiments, read-out: MTT IC50 Hela

Row | Structure (SMILES) | IC50 (MIA PaCa-2; [2]) [µM] | IC50 (MIA PaCa-2; [3]) [µM] | IC50 (MIA PaCa-2; [4]) | IC50 (A375; [5]) [µM] | IC50 (A375; [6]) [µM] | IC50 (A375; [7]) | IC50 (CT26; [8]) [µM] | IC50 (CT26; [9]) [µM] | IC50 (CT26; [10]) | IC50 at 72 h [1] [µM] | CC50 at 72 h [1] [µM] | IC50 (A549; [11]) [µM] | IC50 (A549; [12]) [µM] | IC50 (A549; [13]) | IC50 (MDA-MB-231; [14]) [µM] | IC50 (MDA-MB-231; [15]) [µM] | IC50 (MDA-MB-231; [16]) | IC50 (MCF-7; [17]) [µM] | IC50 (MCF-7; [18]) [µM] | IC50 (MCF-7; [19]) | other results
1 | C=C=C1CN2[C@H]3C[C@H]1[C@H](C=O)[C@@H]2Cc1c3n(S(=O)(=O)c2ccc(C)cc2)c2ccc(Br)cc12 [Compound 15af] | 20.2 | 20.5 | 23 µM and 17 µM | 7.51 | 6.87 | 9.41 µM and 6.25 µM | 15.8 | 13.8 | 18.8 µM and 14.8 µM | > 100 | > 100 | 14.8 | 17 | 12.5 µM and 14.9 µM | 5.39 | 5.02 | 7.05 µM and 4.11 µM | 18.1 | 15 | 20.1 µM and 19.2 µM | IC50 (HCT 116; [20]): 9.98 µM; IC50 (HCT 116; [21]): 11.7 µM; IC50 (HCT 116; [22]): 8.41 µM and 9.85 µM; IC50 (Hela; [23]): 8.56 µM; IC50 (Hela; [24]): 9.81 µM; IC50 (Hela; [25]): 7.52 µM and 8.35 µM
2 | C=C=C1CN2[C@H]3C[C@H]1[C@H](C=O)[C@@H]2Cc1c3n(S(=O)(=O)c2ccc(C)cc2)c2cc(F)ccc12 [Compound 15aj] | 24.1 | 24.2 | 22.1 µM and 26 µM | 13.4 | 15.7 | 11.2 µM and 13.4 µM | 24.3 | 23.7 | 23.2 µM and 26 µM | > 100 | > 100 | 26.2 | 28.5 | 27.4 µM and 22.6 µM | 14 | 16.4 | 11.5 µM and 14.1 µM | 30.3 | 33.5 | 28.1 µM and 29.2 µM | IC50 (HCT 116; [20]): 18.9 µM; IC50 (HCT 116; [21]): 20.1 µM; IC50 (HCT 116; [22]): 20.3 µM and 16.2 µM; IC50 (Hela; [23]): 18.8 µM; IC50 (Hela; [24]): 21.3 µM; IC50 (Hela; [25]): 16.8 µM and 18.3 µM
3 | C=C=C1CN2[C@H]3C[C@H]1[C@H](C=O)[C@@H]2Cc1c3n(S(=O)(=O)c2ccc(C)cc2)c2cc(Br)ccc12 [Compound 15ag] | 22.8 | 25 | 21.3 µM and 22 µM | 8.88 | 10.4 | 7.82 µM and 8.4 µM | 17.3 | 20 | 15.8 µM and 16.1 µM | > 100 | > 100 | 18.2 | 20.1 | 15.3 µM and 19.1 µM | 8.59 | 8.05 | 9.71 µM and 8.01 µM | 20.9 | 22.6 | 21.6 µM and 18.5 µM | IC50 (HCT 116; [20]): 12.4 µM; IC50 (HCT 116; [21]): 14 µM; IC50 (HCT 116; [22]): 13 µM and 10.3 µM; IC50 (Hela; [23]): 9.89 µM; IC50 (Hela; [24]): 11.8 µM; IC50 (Hela; [25]): 9.92 µM and 7.92 µM

— paper PMC10492809, “A Bischler-Napieralski and homo-Mannich sequence enables diversified syntheses of sarpagine alkaloids and analogues” (Nature Communications, 2023)
